Results published in patent publication US9011867B2, “Use of specific peptides in the preparation of a medicament for the treatment of monoclonal gammopathy of undetermined significance (MGUS) or of smoldering multiple myeloma (SMM)” (Ruprecht-Karls-Universitat Heidelberg, priority 2009, dated 2015).

Experiments:
[1] = test system: HM1.24aa22-30-specific T-cells; assay: IFN-γ ELISpot-assay with peptide pulsed T2 cells, HM1.24aa22-30-specific T-cells as effectors; format: cell-based, human; conditions: T-cells from HLA-A2+ HD; ET ratio 2.5/1; FIG. 1A
[2] = test system: Melan-A analogue specific T-cells; assay: IFN-γ ELISpot-assay with peptide pulsed T2 cells, Melan-A analogue specific T-cells as effectors; format: cell-based, human; conditions: for activation of Melan-A analogue specific T-cells by peptide pulsed T2 cells (IFN-γ ELISpot): T-cells from HLA-A2+ HD, ET ratio 2.5/1, FIG. 1A

Sequence | activation of HM1.24aa22-30-specific T-cells by peptide pulsed T2 cells (IFN-γ ELISpot) [1] | activation of Melan-A analogue specific T-cells by peptide pulsed T2 cells (IFN-γ ELISpot) [2] | IFN-γ production of Melan-A analogue specific T-cells activated by peptide pulsed T2 cells ([2]; T-cells from MM patient no. 10, FIG. 4B)
VLLGLSALL [HM1.24aa171-179] | activated neither | activated neither | –
LLLGIGILV (peptide (HM 1.24)) [HM1.24aa22-30] | – | strong activation | produced IFN-γ
